Literature values as cited in patent US5317003A, “Herbicidal compositions comprising glyphosate salts and alkoxylated quaternary amine surfactants” (Monsanto Company, priority 1992, dated 1994).

In the case of O=C(O)CNCP(=O)(O)O [N-phosphonomethylglycine], the solubility in water is listed as “relatively insoluble”.
